Values quoted from earlier work as cited in publication PMC8065136, “Elevated expression of the adhesion GPCR ADGRL4/ELTD1 promotes endothelial sprouting angiogenesis without activating canonical GPCR signalling” (Scientific Reports, 2021).

Test system: GPR97
Description: Another possible explanation for the lack of detectable signalling pathways is that other means of activation need to be employed to activate the receptor. Among them mechanical forces or incubation of the full length receptor with a ligand that has not yet been identified. […] Examples include beclomethasone dipropionate on GPR97[45] or Gedunin- and Khivorin-derivatives on GPR56 and GPR114[46]. It is possible that endogenous small molecules could activate ADGRL4/ELTD1 irrespective of the existence of a functional tethered agoni ...

CCC(=O)OCC(=O)[C@@]1(OC(=O)CC)[C@@H](C)C[C@H]2[C@@H]3CCC4=CC(=O)C=C[C@]4(C)[C@@]3(Cl)[C@@H](O)C[C@@]21C [beclomethasone dipropionate]
Activation of aGPCR: activate
